US20260297070A1, “CYCLIC [COMPOUND LEFT OUT] WRN INHIBITORS” (Nimbus Wadjet, Inc., priority 2023, published 2026)

Target: T1, human Werner helicase (WRN-BV08, Uniprot Q14191, amino acids 517-1235 with L1074F point mutation) (Homo sapiens, UniProt Q14191, L1074F)
T1 construct: Uniprot Q14191, amino acids 517-1235 with L1074F point mutation; TEV-cleavable 8×His (C, cleaved yes); made in house; host or cells: Sf9 insect cells (baculovirus)
Experiment: WRN (BV08) ADP-Glo Assay
Assay type: biochemical
Conditions: 0.15 nM WRN, 5 μM ATP, 0.1 nM DNA duplex, 15 min preincubation, 60 min at 25° C., pH 7.5, 1% DMSO; read-out: ADP-Glo_hWRN_IC50
Outline: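 ADP produced by WRN helicase fragment 517-1235 (L1074F, baculovirus/Sf9, untagged) read by ADP-Glo luminescence after 60 min at 25 °C with 5 μM ATP and 0.1 nM duplex DNA, following 15 min compound preincubation. Final enzyme 0.15 nM in Bicine pH 7.5 buffer, 1% DMSO; 20 μM NSC-617145 defined full inhibition.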

T1 sequence (Q14191 with tags, fused parts or gaps L1074F limits assumed): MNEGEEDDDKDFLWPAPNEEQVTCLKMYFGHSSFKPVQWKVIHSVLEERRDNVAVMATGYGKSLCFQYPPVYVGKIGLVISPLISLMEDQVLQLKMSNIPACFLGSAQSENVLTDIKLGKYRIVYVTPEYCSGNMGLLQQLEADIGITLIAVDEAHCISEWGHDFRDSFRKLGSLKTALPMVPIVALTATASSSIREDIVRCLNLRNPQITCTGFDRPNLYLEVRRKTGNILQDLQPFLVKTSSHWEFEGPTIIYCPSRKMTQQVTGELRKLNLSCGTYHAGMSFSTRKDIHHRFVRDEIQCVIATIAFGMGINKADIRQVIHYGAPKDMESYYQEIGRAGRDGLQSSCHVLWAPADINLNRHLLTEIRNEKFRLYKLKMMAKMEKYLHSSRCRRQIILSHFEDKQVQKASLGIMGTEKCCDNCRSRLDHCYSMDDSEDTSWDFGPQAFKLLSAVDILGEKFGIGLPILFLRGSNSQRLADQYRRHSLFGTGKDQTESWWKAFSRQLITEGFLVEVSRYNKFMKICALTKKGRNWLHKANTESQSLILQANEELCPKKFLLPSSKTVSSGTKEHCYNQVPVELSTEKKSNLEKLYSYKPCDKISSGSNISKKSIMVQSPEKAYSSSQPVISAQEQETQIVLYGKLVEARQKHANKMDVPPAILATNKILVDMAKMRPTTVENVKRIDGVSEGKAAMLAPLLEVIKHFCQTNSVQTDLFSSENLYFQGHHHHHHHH

Compound | IC50
O=C(Cc1ccc(-n2cccc2)cc1)N(C1C=CS(=O)(=O)C1)C1CCCc2cnccc21 (centres unmarked) [I-471, N-(1,1-dioxo-2,3-dihydro-1lambda6-thiophen-3-yl)-2-[4-(1H-pyrrol-1-yl)phenyl]-N-(5,6,7,8-tetrahydroisoquinolin-5-yl)acetamide] | > 50 µM
O=C(Cc1ccc(-n2cccc2)cc1)N(Cc1ccnc2[nH]cnc12)C1C=CS(=O)(=O)C1 (centres unmarked) [I-472, N-(1,1-dioxo-2,3-dihydro-1lambda6-thiophen-3-yl)-N-({3H-imidazo[4,5-b]pyridin-7-yl}methyl)-2-[4-(1H-pyrrol-1-yl)phenyl]acetamide] | > 50 µM
CN(C)C(=O)C(C(=O)N(Cc1ccncc1)C1C=CS(=O)(=O)C1)c1ccc(Br)cc1 (centres unmarked) [I-474, 2-(4-bromophenyl)-N′-(1,1-dioxo-2,3-dihydro-1lambda6-thiophen-3-yl)-N,N-dimethyl-N′-[(pyridin-4-yl)methyl]propanediamide] | > 50 µM
CN(C)C(=O)CC(C(=O)N(Cc1ccncc1)C1C=CS(=O)(=O)C1)c1ccc(-c2ccc(F)cc2)cc1 (centres unmarked) [I-475, N-(1,1-dioxo-2,3-dihydro-1lambda6-thiophen-3-yl)-2-{4′-fluoro-[1,1′-biphenyl]-4-yl}-N′,N′-dimethyl-N-[(pyridin-4-yl)methyl]butanediamide] | > 50 µM
O=C(C1CCc2cc(-n3cccc3)ccc21)N(Cc1ccncc1)C1C=CS(=O)(=O)C1 (centres unmarked) [I-477, N-(1,1-dioxo-2,3-dihydro-1lambda6-thiophen-3-yl)-N-[(pyridin-4-yl)methyl]-5-(1H-pyrrol-1-yl)-2,3-dihydro-1H-indene-1-carboxamide] | > 50 µM
O=C(Cc1ccc(-n2cccc2)cc1)N(c1c[nH]c2ncc(F)cc12)C1C=CS(=O)(=O)C1 (centres unmarked) [I-479, N-(1,1-dioxo-2,3-dihydro-1lambda6-thiophen-3-yl)-N-{5-fluoro-1H-pyrrolo[2,3-b]pyridin-3-yl}-2-[4-(1H-pyrrol-1-yl)phenyl]acetamide] | > 50 µM
Cn1cc(CN(C(=O)Cc2ccc(-n3cccc3)cc2)C2C=CS(=O)(=O)C2)cn1 (centres unmarked) [I-481, N-(1,1-dioxo-2,3-dihydro-1lambda6-thiophen-3-yl)-N-[(1-methyl-1H-pyrazol-4-yl)methyl]-2-[4-(1H-pyrrol-1-yl)phenyl]acetamide] | > 50 µM
O=C(Cc1ccc(N2CC(F)(F)C2)cc1)N(Cc1ccncc1)C1C=CS(=O)(=O)C1 (centres unmarked) [I-482, 2-[4-(3,3-difluoroazetidin-1-yl)phenyl]-N-(1,1-dioxo-2,3-dihydro-1lambda6-thiophen-3-yl)-N-[(pyridin-4-yl)methyl]acetamide] | > 50 µM
O=C(Cc1ccc(-n2cccc2)cc1)N(Cc1ncccn1)C1C=CS(=O)(=O)C1 (centres unmarked) [I-483, N-(1,1-dioxo-2,3-dihydro-1lambda6-thiophen-3-yl)-N-[(pyrimidin-2-yl)methyl]-2-[4-(1H-pyrrol-1-yl)phenyl]acetamide] | > 50 µM
CCC(C(=O)N(Cc1ccncc1)C1C=CS(=O)(=O)C1)c1ccc(-n2cccc2)cc1 (centres unmarked) [I-484, N-(1,1-dioxo-2,3-dihydro-1lambda6-thiophen-3-yl)-N-[(pyridin-4-yl)methyl]-2-[4-(1H-pyrrol-1-yl)phenyl]butanamide] | > 50 µM
O=C(Cc1ccc(-n2cccc2)cc1)N(CC1CCOCC1)C1C=CS(=O)(=O)C1 (centres unmarked) [I-485, N-(1,1-dioxo-2,3-dihydro-1lambda6-thiophen-3-yl)-N-[(oxan-4-yl)methyl]-2-[4-(1H-pyrrol-1-yl)phenyl]acetamide] | > 50 µM
O=C(c1ccc(-n2cccc2)cc1)N(Cc1ccccc1)C1C=CS(=O)(=O)C1 (centres unmarked) [I-486, N-benzyl-N-(1,1-dioxo-2,3-dihydro-1lambda6-thiophen-3-yl)-4-(1H-pyrrol-1-yl)benzamide] | > 50 µM
O=C(c1ccc(-c2ccccc2)cn1)N(Cc1ccccc1)C1C=CS(=O)(=O)C1 (centres unmarked) [I-487, N-benzyl-N-(1,1-dioxo-2,3-dihydro-1lambda6-thiophen-3-yl)-5-phenylpyridine-2-carboxamide] | > 50 µM
O=C(Cn1nnc2ccccc21)N(Cc1ccncc1)C1C=CS(=O)(=O)C1 (centres unmarked) [I-492, 2-(1H-1,2,3-benzotriazol-1-yl)-N-(1,1-dioxo-2,3-dihydro-1lambda6-thiophen-3-yl)-N-[(pyridin-4-yl)methyl]acetamide] | > 50 µM
O=C(Cc1c[nH]c2ccccc12)N(Cc1ccncc1)C1C=CS(=O)(=O)C1 (centres unmarked) [I-493, N-(1,1-dioxo-2,3-dihydro-1lambda6-thiophen-3-yl)-2-(1H-indol-3-yl)-N-[(pyridin-4-yl)methyl]acetamide] | > 50 µM
O=C(Cc1ccc2c(c1)OCO2)N(Cc1ccncc1)C1C=CS(=O)(=O)C1 (centres unmarked) [I-494, 2-(2H-1,3-benzodioxol-5-yl)-N-(1,1-dioxo-2,3-dihydro-1lambda6-thiophen-3-yl)-N-[(pyridin-4-yl)methyl]acetamide] | > 50 µM

Compound | IC50
O=C(CCc1cc2ccccc2s1)N(Cc1ccncc1)C1C=CS(=O)(=O)C1 (centres unmarked) [I-495, 3-(1-benzothiophen-2-yl)-N-(1,1-dioxo-2,3-dihydro-1lambda6-thiophen-3-yl)-N-[(pyridin-4-yl)methyl]propanamide] | > 50 µM
O=C(CCc1nc(-c2ccccc2F)no1)N(Cc1ccncc1)C1C=CS(=O)(=O)C1 (centres unmarked) [I-496, N-(1,1-dioxo-2,3-dihydro-1lambda6-thiophen-3-yl)-3-[3-(2-fluorophenyl)-1,2,4-oxadiazol-5-yl]-N-[(pyridin-4-yl)methyl]propanamide] | > 50 µM
O=C(Cc1ccc(-n2cccc2)cc1)N(Cc1cccc2[nH]ccc12)C1C=CS(=O)(=O)C1 (centres unmarked) [I-497, N-(1,1-dioxo-2,3-dihydro-1lambda6-thiophen-3-yl)-N-[(1H-indol-4-yl)methyl]-2-[4-(1H-pyrrol-1-yl)phenyl]acetamide] | > 50 µM
O=C(Cc1ccc(-n2cccc2)cc1)N(Cc1ccc2[nH]ccc2c1)C1C=CS(=O)(=O)C1 (centres unmarked) [I-498, N-(1,1-dioxo-2,3-dihydro-1lambda6-thiophen-3-yl)-N-[(1H-indol-5-yl)methyl]-2-[4-(1H-pyrrol-1-yl)phenyl]acetamide] | > 50 µM
O=C(Cc1ccc(-n2cccc2)cc1)N(Cc1ccc2cc[nH]c2c1)C1C=CS(=O)(=O)C1 (centres unmarked) [I-499, N-(1,1-dioxo-2,3-dihydro-1lambda6-thiophen-3-yl)-N-[(1H-indol-6-yl)methyl]-2-[4-(1H-pyrrol-1-yl)phenyl]acetamide] | > 50 µM
O=C(CCCc1c[nH]c2ccccc12)N(Cc1ccncc1)C1C=CS(=O)(=O)C1 (centres unmarked) [I-500, N-(1,1-dioxo-2,3-dihydro-1lambda6-thiophen-3-yl)-4-(1H-indol-3-yl)-N-[(pyridin-4-yl)methyl]butanamide] | > 50 µM
O=C(Cc1ccc(OCc2ccccc2)cc1)N(Cc1ccncc1)C1C=CS(=O)(=O)C1 (centres unmarked) [I-501, 2-[4-(benzyloxy)phenyl]-N-(1,1-dioxo-2,3-dihydro-1lambda6-thiophen-3-yl)-N-[(pyridin-4-yl)methyl]acetamide] | > 50 µM
O=C(CCn1ccc2ccccc21)N(Cc1ccncc1)C1C=CS(=O)(=O)C1 (centres unmarked) [I-502, N-(1,1-dioxo-2,3-dihydro-1lambda6-thiophen-3-yl)-3-(1H-indol-1-yl)-N-[(pyridin-4-yl)methyl]propanamide] | > 50 µM
O=C(Cc1ccc(Oc2ccccc2)cc1)N(Cc1ccncc1)C1C=CS(=O)(=O)C1 (centres unmarked) [I-503, N-(1,1-dioxo-2,3-dihydro-1lambda6-thiophen-3-yl)-2-(4-phenoxyphenyl)-N-[(pyridin-4-yl)methyl]acetamide] | > 50 µM
O=C(Cc1ccc2cc[nH]c2c1)N(Cc1ccncc1)C1C=CS(=O)(=O)C1 (centres unmarked) [I-506, N-(1,1-dioxo-2,3-dihydro-1lambda6-thiophen-3-yl)-2-(1H-indol-6-yl)-N-[(pyridin-4-yl)methyl]acetamide] | > 50 µM
O=C(CCc1ccc(C(F)(F)F)cc1)N(Cc1ccncc1)C1C=CS(=O)(=O)C1 (centres unmarked) [I-507, N-(1,1-dioxo-2,3-dihydro-1lambda6-thiophen-3-yl)-N-[(pyridin-4-yl)methyl]-3-[4-(trifluoromethyl)phenyl]propanamide] | > 50 µM
O=C(CCc1cccc(OC(F)(F)F)c1)N(Cc1ccncc1)C1C=CS(=O)(=O)C1 (centres unmarked) [I-508, N-(1,1-dioxo-2,3-dihydro-1lambda6-thiophen-3-yl)-N-[(pyridin-4-yl)methyl]-3-[3-(trifluoromethoxy)phenyl]propanamide] | > 50 µM
O=C(Cc1cccc(Oc2ccccc2)c1)N(Cc1ccncc1)C1C=CS(=O)(=O)C1 (centres unmarked) [I-510, N-(1,1-dioxo-2,3-dihydro-1lambda6-thiophen-3-yl)-2-(3-phenoxyphenyl)-N-[(pyridin-4-yl)methyl]acetamide] | > 50 µM
COc1ccc2cc(CC(=O)N(Cc3ccncc3)C3C=CS(=O)(=O)C3)ccc2c1 (centres unmarked) [I-511, N-(1,1-dioxo-2,3-dihydro-1lambda6-thiophen-3-yl)-2-(6-methoxynaphthalen-2-yl)-N-[(pyridin-4-yl)methyl]acetamide] | > 50 µM
N#Cc1ccc(CC(=O)N(Cc2ccncc2)C2C=CS(=O)(=O)C2)cc1 (centres unmarked) [I-513, 2-(4-cyanophenyl)-N-(1,1-dioxo-2,3-dihydro-1lambda6-thiophen-3-yl)-N-[(pyridin-4-yl)methyl]acetamide] | > 50 µM

Same assay, conditions: ADP-Glo_hWRN_IC50, 0.15 nM WRN, 5 μM ATP, 0.1 nM DNA duplex, 15 min preincubation, 60 min at 25° C., pH 7.5, 1% DMSO

Compound | IC50
O=C(CN1CC=C(c2ccccc2)CC1)N(Cc1ccncc1)C1C=CS(=O)(=O)C1 (centres unmarked) [I-478, N-(1,1-dioxo-2,3-dihydro-1lambda6-thiophen-3-yl)-2-(4-phenyl-1,2,3,6-tetrahydropyridin-1-yl)-N-[(pyridin-4-yl)methyl]acetamide] | > 50 µM
